Results reported in patent US20170261494A1, “Disposable Single Cell Array for Personalized Diagnostics” (Northeastern University, priority 2016, published 2017).
Where a name gives a salt, the structure may show the parent alone.

Experiments:
[1] = system: HCT-116, HCT-116-siRNA-topo1 and HCT-116-siRNA-topo2 cells; assay: Single-cell array immunoblotting for topo1, topo2 and γH2AX in halo and nucleus; assay type: cell-based; settings: alkaline solution, primary antibodies to topo1, topo2, γH2AX, fluorescent secondary antibodies
Description: (§1) Identification of topoisomerase complexes with DNA and histones at single-cell level can provide mechanistic confirmation on drug- or radiation-DNA interaction. Three colorectal cancer cell lines, HCT-116 (normal topo1/topo2 expression), HCT-116-siRNA-topo1 (low topo1 expression) and HCT-116-siRNA-topo2 (low topo2 expression), are treated with two drugs (one targets topo1 and the other targets topo2), followed by immunoblotting with the array of invention. First, cells are treated with CPT-11 (topo1 drug), and processed for use with the invention using SYBR SAFE dye to reflect the extent of DNA damage. […] In a second experiment, CPT-11 treated cells are subjected to an alkaline solution to allow damaged DNA diffusion (without fluorescence staining), and then incubated with three primary antibodies (topo1, topo2 and γH2AX) for 10 min. After washing to remove excess antibodies, three fluorescent secondary antibodies against topo1, topo2 and γ-H2AX are added. After washing away excess antibodies, the three proteins are detected with fluorescence imaging. […] Parallel studies with VP-16, which targets topo2 enzyme is performed. […] Similar experiments are performed to test X-ray irradiated cells. The results are compared to provide information on drug actions.

A172 cells = assay: Paper-based single-cell array halo assay of DNA damage (NDF); design: species or system human; settings: drug concentration 50 μM (0 at 0 μM); FIG. 6E/6F
MCF7 cells = assay: as above; settings: drug concentration 50 μM (0 at 0 μM); FIG. 6E/6F
Description: (§2) Fibroblast cells, human glioblastoma cells (A172) and breast cancer cells (MCF7) were cultured in standard conditions (5% CO2 in air at 37° C.) in RPMI-1640 medium supplemented with 10% (v/v) fetal bovine serum and 1% (v/v) penicillin/streptomycin. For obtaining individual cells, cells were trypsinized.
(§3) After exposure to anticancer treatment (radiation or chemotherapy drug), cells were seeded on the cell array precursor at a density of 1×10^6 cells/ml, forming ordered single-cell arrays (FIG. 1A). The quality of single cell arrays was primarily determined by surface roughness of the substrate (FIGS. 3E-H). As the paper surface became smoother, more cells were attached, and the array became more ordered. The attachment probability was derived as the ratio between adsorbed cells and the number of micro-patches. The probability of single cell array increased as the number of layers increased from 25±3.1%, 70±3.5%, to 87±6.4% for 1, 3 and 5 layers of ink, respectively. Five layers of ink provided a high quality substrate for single cell array formation, making this method ideal for paper-based single-cell halo assay.
(§4) After incubating cells on the paper for 30 min, unattached cells were rinsed away with PBS, followed by addition of 1.5 ml 1% low melting point (LGT)-agarose on paper. The substrate was kept at room temperature for 10 min to allow gel solidification. Then, cells on the paper were immersed in 0.3 M NaOH for 30 min at room temperature, and stained with diluted (×10000) SYBR green I solution for 15 min. After removing unbound dye, cells were imaged using an Olympus IX81 fluorescent microscope and the acquired images were analyzed with in-house image analysis software to quantify DNA damage. Each data point was averaged from at least 50 individual cells.
(§5) An in-house MATLAB image processing software was developed for quantifying DNA damage. In order to isolate individual cells, images were thresholded using Otsu's method into 4 levels. The first level was considered background; the second and third levels were combined to label halo; and the fourth level was used to label the nucleus. All non-background levels were combined to form a binary image of a cell. The eccentricity of each cell object was measured on a scale of 0 to 1, where a score of 0 corresponded to a perfectly circular object and a score of 1 corresponded to a line. Cell objects with an eccentricity>0.5 were removed from the image on the assumption that they contain overlapping cells (due to deposition of un-patterned cells). FIGS. 4A-F show the process of automatic analysis of the single-cell array using MATLAB software. The original image was transferred from a color image to a grayscale image (FIG. 4A). […] DNA damage measurements were calculated based on the halos and nuclei labeled for each cell. […]

fibroblast cells = assay: as above; settings: drug concentration 50 μM (0 at 0 μM); FIG. 6E/6F
Description: as §2, §3, §4, §5

[2] = system: HCT-116, HCT-116-siRNA-topo1 and HCT-116-siRNA-topo2 cells; assay: Single-cell array halo assay in colorectal cancer cell lines with normal or low topo1/topo2 expression; assay type: cell-based; settings: SYBR SAFE dye; compared among HCT-116, HCT-116-siRNA-topo1 and HCT-116-siRNA-topo2
Description: as §1

| SMILES | Protein found in halos (topoisomerase trapped in damaged DNA) [1] | NDF of A172 cells (A172 cells) | NDF of MCF7 cells (MCF7 cells) | NDF of fibroblast cells (fibroblast cells) | Halo size (extent of DNA damage) [2] |
| --- | --- | --- | --- | --- | --- |
| COc1cc([C@@H]2c3cc4c(cc3[C@@H](O[C@@H]3O[C@@H]5CO[C@@H](C)O[C@H]5[C@H](O)[C@H]3O)[C@H]3COC(=O)[C@H]23)OCO4)cc(OC)c1O [VP-16] | Only topo2 enzymes are trapped in damaged DNAs and diffused in halos |  |  |  |  |
| COc1cccc2c1C(=O)c1c(O)c3c(c(O)c1C2=O)C[C@@](O)(C(=O)CO)C[C@@H]3O[C@H]1C[C@H](N)[C@H](O)[C@H](C)O1 [doxorubicin, doxorubicin hydrochloride] |  | 3.91 | 3.95 | 4.63 |  |
| CCc1c2c(nc3ccc(OC(=O)N4CCC(N5CCCCC5)CC4)cc13)-c1cc3c(c(=O)n1C2)COC(=O)[C@]3(O)CC [irinotecan, irinotecan hydrochloride] | Only topo1 is found in halos |  | 4.05 | 4.34 | smallest in HCT-116-siRNA-topo1 cells |
